Experimental data as given in publication PMC7725843, “Structural and biochemical analyses of an aminoglycoside 2′-N-acetyltransferase from Mycolicibacterium smegmatis” (Scientific Reports, 2020).

Tests used:
AAC(2′)-Id [1] = molecular target: T1, AAC(2′)-Id (Mycolicibacterium smegmatis, UniProt P94968); assay: X-ray crystal structure; type: binding; conditions: ternary complexes with gentamicin, sisomicin, neomycin or paromomycin; 5 mM CoA
T1 construct: full-length ORF (630 bp), codon-optimised synthetic gene in pET-28a(+), E. coli BL21(DE3); N-terminal His-tag cut with thrombin; homodimer
T1 sequence (P94968 whole entry): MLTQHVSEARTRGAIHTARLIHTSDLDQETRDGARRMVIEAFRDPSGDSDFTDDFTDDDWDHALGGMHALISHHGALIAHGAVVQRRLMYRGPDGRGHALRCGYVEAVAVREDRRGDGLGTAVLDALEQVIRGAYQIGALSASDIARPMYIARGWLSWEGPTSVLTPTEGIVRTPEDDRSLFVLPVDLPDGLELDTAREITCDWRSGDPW

AAC(2′)-Id [2] = molecular target: T1, AAC(2′)-Id; assay: DTNB assay of CoA release at […] nm, Michaelis-Menten fit; type: biochemical; conditions: 300 μM acetyl-CoA, 50 mM MES pH 6.5, 200 μM DTNB, 25 °C

SMILES | X-ray crystal structure (AAC(2′)-Id [1]) | Km (μM) (AAC(2′)-Id [2])
CC(C)(COP(=O)(O)OP(=O)(O)OC[C@H]1O[C@@H](n2cnc3c(N)ncnc32)[C@H](O)[C@@H]1OP(=O)(O)O)[C@@H](O)C(=O)NCCC(=O)NCCS [CoA] | chain B contains only a CoA molecule | –
CN[C@@H]1[C@@H](O)[C@@H](O[C@@H]2[C@@H](O)[C@H](O[C@H]3OC(CN)=CC[C@H]3N)[C@@H](N)C[C@H]2N)OC[C@]1(C)O [Sisomicin] | – | (7.30 ± 0.58) × 10 μM
